Experimental data reported in patent publication US20230078764A1 (Yumanity Therapeutics, Inc., priority 2019, published 2023).
Read-outs that look alike come from different tables or passages of the source.

Assays:
human SCD1 = target: T1, human SCD1 (Homo sapiens, UniProt O00767); assay: Growth inhibition of yeast strain expressing human SCD1 as sole desaturase (OLE1 deleted), OD600 readout; format: cell-based
T1 construct: expressed in transfected cells; host or cells: yeast strain with OLE1 deleted, plasmid-borne human SCD1 (selected in SD-Ura)
T1 sequence (O00767 1-359): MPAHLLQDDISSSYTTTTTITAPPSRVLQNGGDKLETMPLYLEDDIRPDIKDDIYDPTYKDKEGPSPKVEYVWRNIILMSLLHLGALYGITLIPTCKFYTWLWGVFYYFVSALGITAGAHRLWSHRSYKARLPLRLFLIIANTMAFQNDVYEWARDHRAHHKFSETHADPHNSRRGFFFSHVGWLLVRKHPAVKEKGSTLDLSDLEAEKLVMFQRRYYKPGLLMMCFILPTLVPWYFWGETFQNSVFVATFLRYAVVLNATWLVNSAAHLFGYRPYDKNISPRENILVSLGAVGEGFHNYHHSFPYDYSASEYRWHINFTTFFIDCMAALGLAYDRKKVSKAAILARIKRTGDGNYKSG

human SCD5 = target: T2, human SCD5 (Homo sapiens, UniProt Q86SK9); assay: Growth inhibition of yeast strain expressing human SCD5 as sole desaturase (OLE1 deleted), OD600 readout; format: cell-based
T2 construct: expressed in transfected cells; host or cells: yeast strain with OLE1 deleted, plasmid-borne human SCD5 (selected in SD-Ura)
T2 sequence (Q86SK9 1-330): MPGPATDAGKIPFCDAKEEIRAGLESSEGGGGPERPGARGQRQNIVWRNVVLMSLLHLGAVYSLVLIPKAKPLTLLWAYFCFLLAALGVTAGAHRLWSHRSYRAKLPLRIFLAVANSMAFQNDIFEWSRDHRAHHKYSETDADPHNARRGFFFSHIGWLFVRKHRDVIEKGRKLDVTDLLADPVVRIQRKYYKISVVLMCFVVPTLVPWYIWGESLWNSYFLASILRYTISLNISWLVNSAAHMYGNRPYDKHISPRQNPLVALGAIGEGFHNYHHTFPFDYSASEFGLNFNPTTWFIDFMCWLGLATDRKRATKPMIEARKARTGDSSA

[1] = yeast strain expressing human SCD1 as sole desaturase, growth (OD600) after 40 h at 30° C., read-out: SCD1 IC50
[2] = yeast strain expressing human SCD5 as sole desaturase, growth (OD600) after 40 h at 30° C., read-out: SCD5 IC50

SMILES	IC50 (human SCD1; [1])	IC50 (human SCD5; [2])	IC50 (human SCD5; SCD5 IC50)	IC50 (human SCD1; SCD1 IC50)
CN1N=C(C(=O)Nc2ccc(Cc3cccc(Br)c3)nn2)CCC1=O [Compound 191, N-(6-(3-bromobenzyl)pyridazin-3-yl)-1-methyl-6-oxo-1,4,5,6-tetrahydropyridazine-3-carboxamide]	> 45000 nM	2680 nM		
CN1N=C(C(=O)Nc2ccc(Cc3ccc(F)c(Cl)c3)nn2)CCC1=O [Compound 192, N-(6-(3-chloro-4-fluorobenzyl)pyridazin-3-yl)-1-methyl-6-oxo-1,4,5,6-tetrahydropyridazine-3-carboxamide]	11900 nM	1310 nM		
CN1N=C(C(=O)Nc2ccc(Cc3cccc(C(F)(F)F)c3)nn2)CCC1=O [Compound 194, 1-methyl-6-oxo-N-(6-(3-(trifluoromethyl)benzyl)pyridazin-3-yl)-1,4,5,6-tetrahydropyridazine-3-carboxamide]	> 45000 nM	1540 nM		
Cn1nc(C(=O)Nc2ccc(Cc3cccc(F)c3)nn2)ccc1=O [Compound 195, N-(6-(3-fluorobenzyl)pyridazin-3-yl)-1-methyl-6-oxo-1,6-dihydropyridazine-3-carboxamide]	15900 nM	2310 nM		
Cn1nc(C(=O)Nc2ccc(Cc3cccc(Cl)c3)nn2)ccc1=O [Compound 196, N-(6-(3-chlorobenzyl)pyridazin-3-yl)-1-methyl-6-oxo-1,6-dihydropyridazine-3-carboxamide]	5580 nM	1560 nM		
CN1N=C(C(=O)Nc2ccc(Cc3cccc(Cl)c3)nn2)CCC1=O [Compound 197, N-(6-(3-chlorobenzyl)pyridazin-3-yl)-1-methyl-6-oxo-1,4,5,6-tetrahydropyridazine-3-carboxamide]	2750 nM	370 nM		
CN1N=C(C(=O)Nc2ccc(CC3CCCCC3)nn2)CCC1=O [Compound 198, N-(6-(cyclohexylmethyl)pyridazin-3-yl)-1-methyl-6-oxo-1,4,5,6-tetrahydropyridazine-3-carboxamide]	> 45000 nM	7180 nM		
Cn1nc(C(=O)Nc2ncc(Cc3cccc(F)c3)s2)ccc1=O [Compound 202, N-(5-(3-fluorobenzyl)thiazol-2-yl)-1-methyl-6-oxo-1,6-dihydropyridazine-3-carboxamide]	20 nM	20 nM		
CN1N=C(C(=O)Nc2ncc(Cc3ccccc3F)s2)CCC1=O [Compound 206, N-(5-(2-fluorobenzyl)thiazol-2-yl)-1-methyl-6-oxo-1,4,5,6-tetrahydropyridazine-3-carboxamide]	3360 nM	2510 nM		
CN1N=C(C(=O)Nc2ncc(Cc3cccc(Cl)c3)s2)CCC1=O [Compound 207, N-(5-(3-chlorobenzyl)thiazol-2-yl)-1-methyl-6-oxo-1,4,5,6-tetrahydropyridazine-3-carboxamide]	90 nM	10 nM		
CN1N=C(C(=O)Nc2ncc(Cc3cccc(C#N)c3)s2)CCC1=O [Compound 209, N-(5-(3-cyanobenzyl)thiazol-2-yl)-1-methyl-6-oxo-1,4,5,6-tetrahydropyridazine-3-carboxamide]	1690 nM	2450 nM		
COc1cccc(Cc2cnc(NC(=O)c3ccc(=O)n(C)n3)s2)c1 [Compound 212, N-(5-(3-methoxybenzyl)thiazol-2-yl)-1-methyl-6-oxo-1,6-dihydropyridazine-3-carboxamide]	150 nM	40 nM		
CC(c1cccc(F)c1)c1cnc(NC(=O)C2=NN(C)C(=O)CC2)s1 (stereo not shown) [Compound 214, N-(5-(1-(3-fluorophenyl)ethyl)thiazol-2-yl)-1-methyl-6-oxo-1,4,5,6-tetrahydropyridazine-3-carboxamide]	14500 nM	1750 nM		
CN1N=C(C(=O)Nc2nc(Cl)c(Cc3cccc(F)c3)s2)CCC1=O [Compound 218, N-(4-chloro-5-(3-fluorobenzyl)thiazol-2-yl)-1-methyl-6-oxo-1,4,5,6-tetrahydropyridazine-3-carboxamide]	2730 nM	360 nM		
CN1N=C(C(=O)Nc2ncc(Cc3cccc(F)c3)s2)CCC1=O [Compound 220]	660 nM	520 nM		
CN1CC(C(=O)Nc2ncc(Cc3cccc(F)c3)s2)CCC1=O (stereo not shown) [Compound 223, N-(5-(3-fluorobenzyl)thiazol-2-yl)-1-methyl-6-oxopiperidine-3-carboxamide]	> 45000 nM		11300 nM	
Cn1cc(C(=O)Nc2ncc(Cc3cccc(F)c3)s2)ccc1=O [Compound 224, N-(5-(3-fluorobenzyl)thiazol-2-yl)-1-methyl-6-oxo-1,6-dihydropyridine-3-carboxamide]			220 nM	310 nM
O=C(Nc1ncc(Cc2cccc(F)c2)s1)c1ccc(=O)n(CCF)n1 [Compound 226, N-(5-(3-fluorobenzyl)thiazol-2-yl)-1-(2-fluoroethyl)-6-oxo-1,6-dihydropyridazine-3-carboxamide]	7270 nM	5710 nM		
CCn1nc(C(=O)Nc2ncc(Cc3cccc(F)c3)s2)ccc1=O [Compound 227, 1-ethyl-N-(5-(3-fluorobenzyl)thiazol-2-yl)-6-oxo-1,6-dihydropyridazine-3-carboxamide]	440 nM	360 nM		

More lines, main results first:

IC50 (human SCD1; [1])	IC50 (human SCD5; [2])	SMILES	IC50 (human SCD5; SCD5 IC50)	IC50 (human SCD1; SCD1 IC50)
> 45000 nM	5800 nM	CCn1nc(C(=O)Nc2ccc(Cc3cccc(F)c3)nn2)ccc1=O [Compound 199, 1-ethyl-N-(6-(3-fluorobenzyl)pyridazin-3-yl)-6-oxo-1,6-dihydropyridazine-3-carboxamide]		
> 45000 nM	27900 nM	COC(c1cccc(F)c1)c1cnc(NC(=O)C2=NN(C)C(=O)CC2)s1 (stereo not shown) [Compound 204, N-(5-((3-fluorophenyl)(methoxy)methyl)thiazol-2-yl)-1-methyl-6-oxo-1,4,5,6-tetrahydropyridazine-3-carboxamide]		
> 45000 nM	29400 nM	CN1N=C(C(=O)Nc2ncc(C(O)c3cccc(F)c3)s2)CCC1=O (stereo not shown) [Compound 205, N-(5-((3-fluorophenyl)(hydroxy)methyl)thiazol-2-yl)-1-methyl-6-oxo-1,4,5,6-tetrahydropyridazine-3-carboxamide]		
130 nM	50 nM	CN1N=C(C(=O)Nc2ncc(Cc3ccc(F)cc3)s2)CCC1=O [Compound 208, N-(5-(4-fluorobenzyl)thiazol-2-yl)-1-methyl-6-oxo-1,4,5,6-tetrahydropyridazine-3-carboxamide]		
390 nM	380 nM	CN1N=C(C(=O)Nc2ncc(Cc3ccc(Cl)cc3)s2)CCC1=O [Compound 213, N-(5-(4-chlorobenzyl)thiazol-2-yl)-1-methyl-6-oxo-1,4,5,6-tetrahydropyridazine-3-carboxamide]		
10 nM	20 nM	CN1N=C(C(=O)Nc2ncc(Cc3cc(F)cc(Cl)c3)s2)CCC1=O [Compound 216, N-(5-(3-chloro-5-fluorobenzyl)thiazol-2-yl)-1-methyl-6-oxo-1,4,5,6-tetrahydropyridazine-3-carboxamide]		
1580 nM	1350 nM	Cc1nc(NC(=O)C2=NN(C)C(=O)CC2)sc1Cc1cccc(F)c1 [Compound 219, N-(5-(3-fluorobenzyl)-4-methylthiazol-2-yl)-1-methyl-6-oxo-1,4,5,6-tetrahydropyridazine-3-carboxamide]		
> 45000 nM	> 45000 nM	CN1N=C(C(=O)N(C)c2ncc(Cc3cccc(F)c3)s2)CCC1=O [Compound 221]		
7450 nM	2510 nM	CC(C)N1N=C(C(=O)Nc2ncc(Cc3cccc(Cl)c3)s2)CCC1=O [Compound 222, N-(5-(3-Chlorobenzyl)thiazol-2-yl)-1-isopropyl-6-oxo-1,4,5,6-tetrahydropyridazine-3-carboxamide]		
2070 nM	1960 nM	O=C(Nc1ncc(Cc2cccc(Cl)c2)s1)c1ccc(=O)n(C2COC2)n1 [Compound 225, N-(5-(3-chlorobenzyl)thiazol-2-yl)-1-(oxetan-3-yl)-6-oxo-1,6-dihydropyridazine-3-carboxamide]		
140 nM	110 nM	CN1N=C(C(=O)Nc2ncc(Cc3cc(F)cc(F)c3)s2)CCC1=O [Compound 229, N-(5-(3,5-difluorobenzyl)thiazol-2-yl)-1-methyl-6-oxo-1,4,5,6-tetrahydropyridazine-3-carboxamide]		
2880 nM	3800 nM	CN1N=C(C(=O)Nc2ncc(Cc3ccccc3Cl)s2)CCC1=O [Compound 230, N-(5-(2-chlorobenzyl)thiazol-2-yl)-1-methyl-6-oxo-1,4,5,6-tetrahydropyridazine-3-carboxamide]		
8930 nM	3170 nM	CN1N=C(C(=O)Nc2ncc(Cc3cncc(Cl)c3)s2)CCC1=O [Compound 231, N-(5-((5-chloropyridin-3-yl)methyl)thiazol-2-yl)-1-methyl-6-oxo-1,4,5,6-tetrahydropyridazine-3-carboxamide]		
